According to the supplement of paper PMC13380429:

Legend:
Conditions in all cases: 72 h
Caco-2 [1] = experiment: cell viability relative to DMSO; higher = less toxic
Calu-3 [2] = experiment: as above
HepG2 [3] = experiment: as above
U2OS [4] = experiment: as above
Vero E6 [5] = experiment: as above
Caco-2 [6] = experiment: relative viability EC50 (midpoint between 100% and the lowest measured viability); higher = less toxic
Calu-3 [7] = experiment: as above
HepG2 [8] = experiment: as above
U2OS [9] = experiment: as above
Vero E6 [10] = experiment: as above
Caco-2 [11] = experiment: drug sensitivity score (DSS) for viability; higher = more toxic; extreme values may be limits of the assay
Calu-3 [12] = experiment: as above
HepG2 [13] = experiment: as above
U2OS [14] = experiment: as above
Vero E6 [15] = experiment: as above

Structure (SMILES)	cell viability (Caco-2 [1]; 1 nM) [%]	cell viability (Caco-2 [1]; 10 nM) [%]	cell viability (Caco-2 [1]; 100 nM) [%]	cell viability (Caco-2 [1]; 1000 nM) [%]	cell viability (Caco-2 [1]; 10000 nM) [%]	cell viability (Calu-3 [2]; 1 nM) [%]	cell viability (Calu-3 [2]; 10 nM) [%]	cell viability (Calu-3 [2]; 100 nM) [%]	cell viability (Calu-3 [2]; 1000 nM) [%]	cell viability (Calu-3 [2]; 10000 nM) [%]	cell viability (HepG2 [3]; 1 nM) [%]	cell viability (HepG2 [3]; 10 nM) [%]	cell viability (HepG2 [3]; 100 nM) [%]	cell viability (HepG2 [3]; 1000 nM) [%]	cell viability (HepG2 [3]; 10000 nM) [%]	cell viability (U2OS [4]; 1 nM) [%]	cell viability (U2OS [4]; 10 nM) [%]	cell viability (U2OS [4]; 100 nM) [%]	cell viability (U2OS [4]; 1000 nM) [%]	cell viability (U2OS [4]; 10000 nM) [%]	cell viability (Vero E6 [5]; 1 nM) [%]	cell viability (Vero E6 [5]; 10 nM) [%]	cell viability (Vero E6 [5]; 100 nM) [%]	cell viability (Vero E6 [5]; 1000 nM) [%]	cell viability (Vero E6 [5]; 10000 nM) [%]	relative viability EC50 (Caco-2 [6]) [µM]	relative viability EC50 (Calu-3 [7]) [µM]	relative viability EC50 (HepG2 [8]) [µM]	relative viability EC50 (U2OS [9]) [µM]	relative viability EC50 (Vero E6 [10]) [µM]	drug sensitivity score (Caco-2 [11])	drug sensitivity score (Calu-3 [12])	drug sensitivity score (HepG2 [13])	drug sensitivity score (U2OS [14])	drug sensitivity score (Vero E6 [15])
C=CCc1ccc(O)c(-c2ccc(O)c(CC=C)c2)c1 [honokiol]	93.8	94.3	102	90.1	90.9	104	111	94.4	96.6	97	108	109	109	93.2	88.4	94.4	95.1	99.3	99.4	88.9	95.7	98.9	97.7	95.4	107	> 10	> 10	> 10	> 10	> 10	0	0	0.2	0	0
CCN(CCO)CCCC(C)Nc1ccnc2cc(Cl)ccc12 (stereo not given) [hydroxychloroquine]	103	116	100	102	85.4	94.1	105	86.8	109	95.9	101	95.9	96.8	94.6	89.6	97.1	98.1	93.4	96.8	89.4	101	95.4	108	93.9	96.8	> 10	> 10	> 10	> 10	> 10	0.1	0	0	0	0
O=C1NC(c2cccc([N+](=O)[O-])c2)=CCN1c1ccccc1O [icilin]	93.4	102	97.6	99.2	100	97.4	94.1	93.7	108	108	94.3	93.4	103	98	101	95.5	103	98.3	103	104	91.9	94.3	94	94.9	106	> 10	> 10	> 10	> 10	> 10	0	0	0	0	0
Nc1c2c(nc3c1CCC3)CCCC2 [ipidacrine]	84.5	96.4	96.3	91.8	106	99.2	99.9	88.6	90.9	100	101	99.9	104	94.6	109	96.8	93.4	103	94.8	99.4	96.5	96.4	95.8	94.7	108	> 10	> 10	> 10	> 10	> 10	0	0	0	0	0
CC[C@H](C)[C@H](N)C(=O)O [isoleucine]	88.4	100	99.3	94.5	108	101	89.1	91.1	99.9	103	99.5	95.6	104	90.8	97.4	101	96.8	96.3	107	106	92.1	97.3	96.4	95.4	106	> 10	> 10	> 10	> 10	> 10	0	0	0	0	0
CCCCCCCCCCCCCCCC(=O)OC(C)C [isopropyl-palmitate]	101	102	109	90.8	90.4	106	96.6	94.3	93.8	101	92.2	102	99	94.8	95.8	102	95.9	97.5	93.2	97.7	96	98.8	99	98.8	97.2	> 10	> 10	> 10	> 10	> 10	0	0	0	0	0
CCN(CC)CCNC(=O)COc1ccc(OC)cc1 [mefexamide]	93	98.3	81.7	81.9	102	108	106	109	106	98.5	114	73.9	92.7	114	119	97.9	99.3	104	98	102	95.1	106	95.4	96.8	108	> 10	> 10	> 10	> 10	> 10	0.1	0	0	0	0
CC(C)S(=O)(=O)NC[C@H](C)c1ccc(-c2ccc(CCNS(C)(=O)=O)cc2)cc1 [mibampator]	96.4	100	101	103	83	101	107	99.9	99.9	86.2	107	105	101	88.2	32.6	99.1	102	100	104	94.1	90.8	98	95.1	94	95.6	> 10	> 10	1.85	> 10	> 10	0.3	0.2	5.7	0	0
COc1cc2c(cc1OC)[C@@H](Cc1cc(OC)c(OC)c(OC)c1)[N+](C)(CCCOC(=O)CC/C=C/CCC(=O)OCCC[N+]1(C)CCc3cc(OC)c(OC)cc3[C@H]1Cc1cc(OC)c(OC)c(OC)c1)CC2 (stereo not given in full) [mivacurium]	107	98.9	109	123	94.5	112	97.6	101	89.7	94	101	95.2	99.4	84.3	97.7	102	99.8	98.6	96.3	100	106	112	105	97.7	93	> 10	> 10	> 10	> 10	> 10	0	0	0	0	0
CCCN(CCC)C(=O)C1=Cc2ccc(-c3ccc(C(=O)N4CCCC4)cc3)cc2N=C(N)C1 [motolimod]	102	106	124	109	100	121	103	112	112	98.1	107	113	89.7	114	40.6	106	101	99.6	98.1	92	102	102	98.1	99.2	91.6	> 10	> 10	4	> 10	> 10	0	0	2.5	0	0
NCc1cc(O)no1 [muscimol]	94.7	96.5	98.4	99.5	103	91.6	95.7	98.3	104	97.3	96.8	105	97.7	98.1	94.5	101	94.6	99.6	98.6	97.3	98.8	97	93.1	97.1	101	> 10	> 10	> 10	> 10	> 10	0	0	0	0	0
CNS(=O)(=O)CCc1ccc2[nH]cc(C3CCN(C)CC3)c2c1 [naratriptan]	97.5	105	92.7	100	105	114	94.1	94.7	97	107	102	98.2	105	103	108	102	106	99.2	99.8	95.9	98.9	100	91.9	99.7	96.7	> 10	> 10	> 10	> 10	> 10	0	0	0	0	0
CN1Cc2c(N)cccc2C(c2ccccc2)C1 (stereo not given) [nomifensine]	97.1	95	98	94.6	103	104	98.2	100	106	96.8	106	110	93.5	103	97.3	101	100	102	101	96.3	97.9	96.8	94.2	99.4	110	> 10	> 10	> 10	> 10	> 10	0	0	0	0	0
O=Cc1cn(Cc2ccc(Cl)cc2)c2ccccc12 [oncrasin-1]	92.2	90.8	97.2	101	98.6	94.8	100	96.2	99.8	106	101	110	104	40.3	1.2	97.2	96.8	102	100	101	90.4	102	94.1	95.9	103	> 10	> 10	0.847	> 10	> 10	0	0	12.5	0	0
